Data on one molecule can be found in patent US20030215817A1, “Modulation of gene expression in formation of fatty atherosclerotic lesions” (priority 2003, published 2003).

Where a name gives a salt, the structure may show the parent alone.

The test concerns Rec1_1 (MspI AAGC 288) mRNA. The test can be described thus: quantified RT-PCR, Rec1_1. It counts as in vivo, rabbit. The note with it: for Relative Abundance Rec1_1, 20 pg F: hypercholesterolemic plus lercanidipine racemate, eight weeks, H2 (normocholesterolemic)=1.0. Here is the method: Nineteen of the isolated DST clones were further validated using RT-PCR analyses; the data are presented in FIGS. 6-24 and in Tables 5-23, below. For each DST examined, the optimal annealing temperature and reagent conditions were determined for the corresponding set of primers (see Table 25) based on results from a preliminary experiment. In eight separate reactions, each set of primers was assayed to find the optimal conditions by adjusting the following four parameters: primer concentration, dNTP concentration, MgCl2 concentration, and number of Taq polymerase units. Once optimal conditions were determined, each DST was run in duplicate multiple simultaneous reactions which usually included at least four dilutions of template (cDNA library), plus control reactions lacking template, and six sequential data points for numbers of cycles.
Reactions were performed using “Hot Start” PCR with the Clontech TaqStart antibody system (Cat. #5400-1). Each reaction contained 1 ml of the cDNA library dilution as template, determined amounts of AmpliTaq DNA polymerase (cat. #N808-0156), MgCl2, dNTPs (GibcoBRL cat. #10297-018), primer, and Clontech TaqStart Antibody in a 20 ml final reaction volume using 10×Taq buffer II (without MgCl2). Typically, a master mix containing all components except the template was prepared and aliquoted. Various templates were then added to these master mix samples and 20 ml volumes were subsequently dispensed into individual reaction tubes. At various times during the PCR run, tubes were removed sequentially on a predetermined schedule in order to quantitate expression of the target DST over a “window” of cycle times. After amplification, the samples were quantified via fluorimetry.
PCR was performed at annealing temperatures that were five degrees above the average melting temperature of each primer pair. For primers greater than 10 bases (in a 0.05M salt solution), melting temperature was calculated using the following formula: Tm=59.9+41[% GC]−[675/Primer Length], where %GC is the decimal value. Following determination of the average melting temperature of the primer pair, the annealing temperature was determined by adding five degrees to the average melting temperature. PCR was performed using the following program: 1) 95 degrees Celsius, 3 minutes; 2) 95 degrees Celsius, 30 seconds; 3) TM+5 degrees Celsius, 30 seconds; 4) 72 degrees Celsius, for a time dependent on target length at 16 bp/second; 5) repeat steps 2-4 33 more cycles; 6) 72 degrees Celsius, 3 minutes; 7) 14 degrees Celsius, forever.
Following temperature cycling, 2 ml of the PCR reaction was added to 140 ml of a 1:280 dilution of PicoGreen (Molecular Probes cat. #P-11495 (10×100 ml)) in TE pH 7.5 in a 96-well Costar UV microtiter plate (Fisher cat. #07-200623). The samples were mixed gently for 1.5 minutes and allowed to equilibrate at room temperature in the dark for 15 minutes. The concentration of the PCR products was quantified by fluorimetry using a PerSeptive Biosystems CytoFluor series 4000 multi-well plate reader.
Background fluorescence was determined by using duplicate control samples that were cycled with all reaction components except the template. The mean value from these duplicate background control samples was subtracted from the corresponding experimental values prior to analyzing results. The sensitivity of the PicoGreen dsDNA assay is reported to be 250 pg/ml (50 pg dsDNA in a […] assay volume) using a fluorescence microplate reader such as was used in these measurements.
DST clone Rec1—1 was one of the clones further evaluated by RT-PCR. The TOGA analysis of clone Rec1—1, identified as MspI AAGC 288, is discussed above and illustrated in FIGS. 1 and 2. The results of the quantified RT-PCR for Rec1—1 are shown in FIG. 6 and in Table 5 (normalized to the normocholesterolemic control value (“H2”) at each time point). […]

Take `COC(=O)C1=C(C)NC(C)=C(C(=O)OC(C)(C)CN(C)CCC(c2ccccc2)c2ccccc2)C1c1cccc([N+](=O)[O-])c1` (racemic) [lercanidipine, lercanidipine hydrochloride]: the “Relative Abundance Rec1_1, 20 pg F” value is, setting by setting: (cycle 26) 7.7; (cycle 28) 4.9; (cycle 30) 3.2; (cycle 32) 2.1; (cycle 34) 1.5. Besides, the “expression of Rec1_1 at 8 weeks (RT-PCR study), in words” value (hypercholesterolemic animals receiving lercanidipine racemate) was “elevated”.
